Read-outs that look alike come from different tables or passages of the source.
Tested on: IGF-1 induced AKT phosphorylation in A549 cells
Experiment: IGF-1 induced AKT phosphorylation assay (A549 cell assay)
Type: cell-based
Conditions: Homo sapiens
Source text: [Determination of IC50 Values of Compounds in Cell Based Assays of PI3K Activity] 96-well collagen treated clear bottom/black sided Costar plates were purchased from CORNING LIFE SCIENCES (Corning, N.Y.; at.#3904). Gibco RPMI medium (Cat.#11875), Biosource anti-phospho-AKT([…]) antibody (Cat.#44-621G) and recombinant IGF-1 (Cat.#PHG0074) were purchased from INVITROGEN (Carlsbad, Calif.). The secondary donkey anti-rabbit IgG horse radish peroxidase conjugate (Cat. #N[…]) and ECL chemiluminesence reagent (Cat.#RPN2209) were purchased from […] (Buckinghamshire, UK). Cell culture tested bovine serum albumin solution (35% in DPBS; Cat.#A7979) and all other chemicals were purchased from SIGMA (St. Louis, Mo.). The Wallac Victor2 1420 Multilabel HTS Counter was purchased from […] (Wellesley, Mass.) […] All wells (except no IGF-1 controls) were then treated with 25 ng/ml IGF-1 for 10 minutes at 37° C. in a 5% CO2 incubator. Following removal of the supernatants and washing with the wells with TBS (50 mM Tris pH 8.0 containing 138 mM NaCL and 27 mM KCl), 200 µL of 3.7% formaldehyde in TBS was added to each well, and the plate was incubated at 4° C. for 10 minutes. Supernatants were once again removed and replaced with 50 μL Methanol (-20° C.) and the plate incubated at 4° C. for 5 minutes. 200 μL of 0.1% BSA in TBS was then added to each well and the plate incubated at room temperature for 1⁄2 hour. Supernatants were removed and 50 μL of a solution comprising the primary anti-phospho-AKT([…]) antibody diluted 1:250 in TBS containing 0.1% BSA was added to each well (except control/background wells). The plate was then incubated for 11⁄2 hour at room temperature. Supernatants were removed, each well was washed 3 times with 200 μL TBS, and 100 μL of a solution containing the secondary donkey anti-rabbit IgG antibody HRP-conjugate diluted 1:100 in TBS-T (TBS containing 0.1% triton). Plates were then incubated for 1 hour at room temperature. After removing the secondary antibody, each well was washed 6 times with cold TBS-T, 100 μL of ECL was added to each well, and the plate was placed on an orbital shaker for 1 minute. The plates were then read on a Wallac Victor2 1420 Multilabel HTS Counter using the luminometry window (maximum light detection is measured at […]). IC50 values were determined from the inhibition curve.

[1] = A549 cells, 25 ng/ml IGF-1, phospho-AKT(Ser 473), read-out: average IC50 in the A549 cell assay

SMILES | IC50 [1] [nM] | IC50 (A549, read-out: average IC50 in the A549 cell assay) [nM]
COc1c(OCCCN2CCOCC2)ccc2c1N=C(NC(=O)c1cncnc1)N1CCN=C21 [Example 1, N-[7-methoxy-8-(3-morpholin-4-ylpropoxy)-2,3-dihydroimidazo[1,2-c]quinazolin-5-yl]pyrimidine-5-carboxamide] | 100 to 1000 | –
COc1c(OCCCN2C[C@@H](C)O[C@@H](C)C2)ccc2c1N=C(NC(=O)c1cccnc1)N1CCN=C21 [Example 2, N-(8-{3-[(2R,6S)-2,6-dimethylmorpholin-4-yl]propoxy}-7-methoxy-2,3-dihydroimidazo[1,2-c]quinazolin-5-yl)nicotinamide] | < 100 | –
COc1c(OCCCN2C[C@@H](C)O[C@@H](C)C2)ccc2c1N=C(NC(=O)c1sc(C)nc1C)N1CCN=C21 [Example 3, N-(8-{3-[(2R,6S)-2,6-dimethylmorpholin-4-yl]propoxy}-7-methoxy-2,3-dihydroimidazo[1,2-c]quinazolin-5-yl)-2,4-dimethyl-1,3-thiazole-5-carboxamide] | < 100 | –
COc1c(OCCCN2CCOCC2)ccc2c1N=C(NC(=O)c1cnc(N)s1)N1CCN=C21 [Example 4, 2-amino-N-[7-methoxy-8-(3-morpholin-4-ylpropoxy)-2,3-dihydroimidazo[1,2-c]quinazolin-5-yl]-1,3-thiazole-5-carboxamide] | 100 to 1000 | –
COc1c(OCCCN2CCOCC2)ccc2c1N=C(NC(=O)c1ccnc(N)c1)N1CCN=C21 [Example 5, 2-amino-N-[7-methoxy-8-(3-morpholin-4-ylpropoxy)-2,3-dihydroimidazo[1,2-c]quinazolin-5-yl]isonicotinamide] | 100 to 1000 | –
COc1c(OCCCN2CCOCC2)ccc2c1N=C(NC(=O)c1sc(N)nc1C)N1CCN=C21 [Example 6, 2-amino-N-[7-methoxy-8-(3-morpholin-4-ylpropoxy)-2,3-dihydroimidazo[1,2-c]quinazolin-5-yl]-4-methyl-1,3-thiazole-5-carboxamide] | < 100 | –
CCCc1nc(N)ncc1C(=O)NC1=Nc2c(ccc(OCCCN3CCOCC3)c2OC)C2=NCCN12 [Example 7, 2-amino-N-[7-methoxy-8-(3-morpholin-4-ylpropoxy)-2,3-dihydroimidazo[1,2-c]quinazolin-5-yl]-4-propylpyrimidine-5-carboxamide] | < 100 | –
CCN1CCOC(CCOc2ccc3c(c2OC)N=C(NC(=O)c2cccnc2)N2CCN=C32)C1 (stereo not drawn) [Example 8, N-{8-[2-(4-ethylmorpholin-2-yl)ethoxy]-7-methoxy-2,3-dihydroimidazo[1,2-c]quinazolin-5-yl}nicotinamide] | < 100 | –
COc1c(OCCN(C)C)ccc2c1N=C(NC(=O)c1cncnc1)N1CCN=C21 [Example 9, N-{8-[2-(dimethylamino)ethoxy]-7-methoxy-2,3-dihydroimidazo[1,2-c]quinazolin-5-yl}pyrimidine-5-carboxamide] | 100 to 1000 | –
COc1c(OCCCN2CCOCC2)ccc2c1N=C(NC(=O)c1cnc(N)nc1)N1CCN=C21 [Example 13, 2-amino-N-[7-methoxy-8-(3-morpholin-4-ylpropoxy)-2,3-dihydroimidazo[1,2-c]quinazolin-5-yl]pyrimidine-5-carboxamide] | – | < 100
COc1c(OCC(O)CN2CCOCC2)ccc2c1N=C(NC(=O)c1cccnc1)N1CCN=C21 (stereo not drawn) [Example 16, N-[8-(2-hydroxy-3-morpholin-4-ylpropoxy)-7-methoxy-2,3-dihydroimidazo[1,2-c]quinazolin-5-yl]nicotinamide] | < 100 | –
COc1c(OCCCN2CCOC(CO)C2)ccc2c1N=C(NC(=O)c1cccnc1)N1CCN=C21 (stereo not drawn) [Example 18, N-(8-{3-[2-(hydroxymethyl)morpholin-4-yl]propoxy}-7-methoxy-2,3-dihydroimidazo[1,2-c]quinazolin-5-yl)nicotinamide] | < 100 | –
COCCN1CCOC(COc2ccc3c(c2OC)N=C(NC(=O)c2cccnc2)N2CCN=C32)C1 (stereo not drawn) [Example 22, N-(7-methoxy-8-{[4-(2-methoxyethyl)morpholin-2-yl]methoxy}-2,3-dihydroimidazo[1,2-c]quinazolin-5-yl)nicotinamide] | < 100 | –
COc1c(OCC2CN(C)CCO2)ccc2c1N=C(NC(=O)c1cccnc1)N1CCN=C21 (stereo not drawn) [Example 23, N-{7-methoxy-8-[(4-methylmorpholin-2-yl)methoxy]-2,3-dihydroimidazo[1,2-c]quinazolin-5-yl}nicotinamide] | < 100 | –
COc1c(OCCCN2CCOCC2)ccc2c1N=C(NC(=O)c1cncn1C)N1CCN=C21 [Example 30, N-[7-methoxy-8-(3-morpholin-4-ylpropoxy)-2,3-dihydroimidazo[1,2-c]quinazolin-5-yl]-1-methyl-1H-imidazole-5-carboxamide] | 100 to 1000 | –
COc1c(OCCCN2CCOCC2)ccc2c1N=C(NC(=O)c1ccc(N)nc1C)N1CCN=C21 [Example 31, 6-amino-N-[7-methoxy-8-(3-morpholin-4-ylpropoxy)-2,3-dihydroimidazo[1,2-c]quinazolin-5-yl]-2-methyl nicotinamide] | < 100 | –
COc1c(OCCCN2CCOCC2)ccc2c1N=C(NC(=O)c1cnc(N)nc1C)N1CCN=C21 [Example 32, 2-amino-N-[7-methoxy-8-(3-morpholin-4-ylpropoxy)-2,3-dihydroimidazo[1,2-c]quinazolin-5-yl]-4-methylpyrimidine-5-carboxamide] | < 100 | –

The next lines start with results.

IC50 [1] [nM] | SMILES | IC50 (A549, read-out: average IC50 in the A549 cell assay) [nM]
< 100 | COc1c(OCCCN2CCOCC2)ccc2c1N=C(NC(=O)c1cnc(N)c(Br)c1)N1CCN=C21 [Example 33, 6-amino-5-bromo-N-[7-methoxy-8-(3-morpholin-4-ylpropoxy)-2,3-dihydroimidazo[1,2-c]quinazolin-5-yl]nicotinamide] | –
100 to 1000 | COc1c(OCCCN2CCOCC2)ccc2c1N=C(NC(=O)c1cnc(N)o1)N1CCN=C21 [Example 34, 2-amino-N-[7-methoxy-8-(3-morpholin-4-ylpropoxy)-2,3-dihydroimidazo[1,2-c]quinazolin-5-yl]-1,3-oxazole-5-carboxamide] | –
< 100 | COc1c(OCC2CNCCO2)ccc2c1N=C(NC(=O)c1cccnc1)N1CCN=C21 (stereo not drawn) [Example 35, N-[7-methoxy-8-(morpholin-2-ylmethoxy)-2,3-dihydroimidazo[1,2-c]quinazolin-5-yl]nicotinamide] | –
100 to 1000 | COc1c(OCCCN(C)C)ccc2c1N=C(NC(=O)c1cnc(NCCN(C)C)nc1)N1CCN=C21 [Example 36, 2-{[2-(dimethylamino)ethyl]amino}-N-{8-[3-(dimethylamino)propoxy]-7-methoxy-2,3-dihydroimidazo[1,2-c]quinazolin-5-yl}pyrimidine-5-carboxamide] | –
< 100 | COc1c(OCCCN(C)C)ccc2c1N=C(NC(=O)c1cnc(N)s1)N1CCN=C21 [Example 37, 2-amino-N-{8-[3-(dimethylamino)propoxy]-7-methoxy-2,3-dihydroimidazo[1,2-c]quinazolin-5-yl}-1,3-thiazole-5-carboxamide] | –
100 to 1000 | COc1c(OCCCN2CCOCC2)ccc2c1N=C(NC(=O)c1cnc(NCCO)nc1)N1CCN=C21 [Example 40, 2-[(2-hydroxyethyl)amino]-N-[7-methoxy-8-(3-morpholin-4-ylpropoxy)-2,3-dihydroimidazo[1,2-c]quinazolin-5-yl]pyrimidine-5-carboxamide] | –
< 100 | COc1c(OCCCN(C)C)ccc2c1N=C(NC(=O)c1cnc(N)nc1)N1CCN=C21 [Example 42, 2-amino-N-{8-[3-(dimethylamino)propoxy]-7-methoxy-2,3-dihydroimidazo[1,2-c]quinazolin-5-yl}pyrimidine-5-carboxamide] | –
> 1000 | COCCNc1ncc(C(=O)NC2=Nc3c(ccc(OCCCN4CCOCC4)c3OC)C3=NCCN23)cn1 [Example 44, 2-[(2-methoxyethyl)amino]-N-[7-methoxy-8-(3-morpholin-4-ylpropoxy)-2,3-dihydroimidazo[1,2-c]quinazolin-5-yl]pyrimidine-5-carboxamide] | –
100 to 1000 | COc1c(OCCCN2CCOCC2)ccc2c1N=C(NC(=O)c1cnc(NCCN(C)C)nc1)N1CCN=C21 [Example 45, 2-{[2-(dimethylamino)ethyl]amino}-N-[7-methoxy-8-(3-morpholin-4-ylpropoxy)-2,3-dihydroimidazo[1,2-c]quinazolin-5-yl]pyrimidine-5-carboxamide] | –
< 100 | COc1c(OCCCN(C)C)ccc2c1N=C(NC(=O)c1ccc(N)nc1)N1CCN=C21 [Example 46, 6-amino-N-{8-[3-(dimethylamino)propoxy]-7-methoxy-2,3-dihydroimidazo[1,2-c]quinazolin-5-yl}nicotinamide] | –
